The record followed here is patent US6369226B1, “Substituted benzamide inhibitors of rhinovirus 3C protease” (Agouron Pharmaceuticals, Inc., priority 1999, dated 2002).

The target in one series is T1, HRV-14 3CP (Human rhinovirus 14, UniProt P03303).
T1 construct: The 2A and 3C protease (3CP) process this polyprotein into its functional viral proteins in HRV
Nature of the series: 3CP enzyme inhibition assay. The series is classed as biochemical. To be noted: for kinact/KI: read-out: Kobs/[I]. From the text: 3CP Inhibition Assays and Antiviral Assays The details of the 3CP enzyme assays used and the antiviral assays used are outlined in Dragovich, P. S., Webber, S. E, Babine, R. E., Fuhrman, S. A., Patick, A. K., Matthews, D. A., Lee, C. A., Reich, S. H., Prins, T. J., Marakovits, J. T., Littlefield, E. S., Zhou, R., Tikhe, J., Ford, C. E., Wallace, M. B., Meador, III, J. W., Ferre, R., Brown, E. L., Binford, S. L, Harr, , J. E. V., DeLisle, D. M. and Worland, S. T. Structure-Based Design, Synthesis, and Biological Evaluation of Irreversible Human Rhinovirus 3C Protease Inhibitors. 1. Michael Acceptor Structure-Activity Studies J. Med. Chem. 1998,41, 2806, the disclosure of which is incorporated by reference herein.

The nature of series [1]: cytotoxicity (CC50) in the antiviral cell culture assay. Conditions: human.
Another series has as its system HRV-14. Kind of series: antiviral cytopathic effect assay employing H1-HeLa cells infected with HRV-14. Conditions: for pEC50: Rhinovirus B, HRV14, H1-HeLa. Format: cell-based, human rhinovirus serotype 14.
A further series addresses T2, 3CP (Human rhinovirus 14, UniProt P03303).
T2 construct: The 2A and 3C protease (3CP) process this polyprotein into its functional viral proteins in HRV
Kind of series: loss of 3CP inhibitory activity after exposure of compound to DTT. Format: biochemical. To be noted: for DTT inhib.: loss of 3CP inhibitory activity after exposure to 5 mM DTT for 2-3 min at 23° C. How it is done: With this information in hand, additional esters were prepared and tested. It was anticipated that by filling the active site in the prime direction (S1′-S2′), additional affinity might be obtained. […] To determine whether the activity of the parent compound 1 was due to the inherent reactivity of the unsaturated ester, alternative substitutions were examined in the 1-position corresponding to the S1 recognition pocket. […] (Webber, S. E., Tikhe, J., Worland, S. T., Fuhrman, S. A., Hendrickson, T. F., Matthews, D. A., Love, R. A., Patick, A. K., Meador, J. W., Ferre, R. A., Brown, E. L., DeLisle, D. M., Ford, C. E., Binford, S. L. Design, Synthesis, and Evaluation of Nonpeptidic Inhibitors of Human Rhinovirus 3C Protease. J. Med. Chem. 1996, 39, 5072-5082.) Increased activation of the Michael acceptor toward nucleophilic addition, by alpha cyano substitution, led to a modest but reversible inhibitor, compound 9. Various unsaturated imides, also expected to be more reactive than an unsaturated ester, were poor inhibitors. Exploration of α,β-unsaturated ketones led to some interesting findings. […] When tested in the antiviral assay, ketones in general had greater toxicity (lower CC50) and no measurable antiviral effect. […] (Dragovich, P. S., Webber, S. E, Babine, R. E., Fuhrman, S. A., Patick, A. K., Matthews, D. A., Lee, C. A., Reich, S. H., Prins, T. J., Marakovits, J. T., Littlefield, E. S., Zhou, R., Tikhe, J., Ford, C. E., Wallace, M. B., Meador, III, J. W., Ferre, R., Brown, E. L., Binford, S. L, Harr, J.E. V., DeLisle, D. M. and Worland, S. T. Structure-Based Design, Synthesis, and Biological Evaluation of Irreversible Human Rhinovirus 3C Protease Inhibitors. 1. Michael Acceptor Structure-Activity Studies J. Med. Chem. 1998,41, 2806.) Electron-donating substituents at the 4-position of the phenyl ketone (4-Me2N—, 4-MeO—), were expected to make the ketones less reactive, however, no effect on their inactivation with DTT was observed. Similarly, heterocyclic ketones (2-pyridyl, 2-furyl) maintained their reactivity with DTT. In an attempt to make the inhibitors more compact, an indenone scaffold was designed. […] It became clear that while small, nonpeptidic α,β-unsaturated ketones such as compound 22 afforded potent […] inhibition of 3CP, this increased reactivity was incompatible with the more complex cellular milieu present in the cytopathic effect assay.

[2] abbreviates: Table 1, Serotype 14, NI = no inhibition.

pEC50, pKi: −log10 of the molar value. Read-outs that look alike come from different tables or passages of the source. Some results are limits rather than exact numbers.

T1 sequence (P03303 1538-1719): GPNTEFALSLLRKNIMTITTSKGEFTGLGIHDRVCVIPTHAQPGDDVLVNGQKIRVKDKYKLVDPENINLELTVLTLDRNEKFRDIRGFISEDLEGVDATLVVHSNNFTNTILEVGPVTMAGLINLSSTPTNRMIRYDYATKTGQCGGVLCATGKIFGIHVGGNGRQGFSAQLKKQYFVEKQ
T2 sequence (P03303 1538-1719): as above

Regarding “3-[3-Carbamoyl-5-(5-pyridin-2-yl-[1,3,4]oxaldiazol-2-ylsulfanylmethyl-phenyl]-acrylic acid ethyl ester [Compound 25]”, the “Kobs/[I]” value on HRV-14 3CP (Table 3, Serotype 14) amounted to 286 M⁻¹ s⁻¹.

Regarding `CCOC(=O)C=Cc1cc(CN(CCC(=O)OCC)Cc2ccccc2)cc(C(N)=O)c1` [Compound 23, 3-(3-{[Benzyl-(2-ethoxycarbonyl-ethyl)-amino]-methyl}-5-carbamoyl-phenyl)-acrylic acid ethylester], the kinact/KI on HRV-14 3CP (Table 3, Serotype 14) was found to be 568 M⁻¹ s⁻¹. The CC50 (usually the concentration that lowers cell viability or growth by half) in series [1] was above 100 µM. Also, in the series with HRV-14, the negative logarithm of the EC50 (pEC50) – broadly, the EC50 on a negative log10 scale, so that one unit is a factor of ten – was 5.00.

Regarding `CCOC(=O)C=Cc1ccc(OCc2ccccc2)c(C(N)=O)c1` [Compound 15, 3-(4-Benzyloxy-3-carbamoyl-phenyl)-acrylic acid ethyl ester], on HRV-14 3CP (setting [2]), the kinact/KI turned out to be 30 M⁻¹ s⁻¹. This compound also showed a cytotoxic concentration (CC50) in series [1] above 320 µM. In addition, in the series on HRV-14, the negative-log EC50 (pEC50) is below 3.49.

Regarding `CCOC(=O)C=Cc1cc(OCc2ccccc2)cc(C(N)=O)c1` [Compound 12, 3-(3-Benzyloxy-5-carbamoyl-phenyl)-acrylic acid ethyl ester], the melting point (in general, the temperature, or range, at which the solid turns liquid) fell in the range of 193 to 194 °C.

`CCOC(=O)C=Cc1cc(CN2CCN(c3ccccn3)CC2)cc(C(N)=O)c1` [Compound 26, 3-[3-Carbamoyl-5-(4-pyridin-2-yl-piperizin-1-methyl)-phenyl]-acrylic acid ethyl ester]: the “Kobs/[I]” value on HRV-14 3CP (Table 3, Serotype 14) worked out at 269 M⁻¹ s⁻¹.

Consider `NC(=O)c1cccc(C=CC(=O)OCc2cccnc2)c1` [Compound 6, 3-(3-Carbamoyl-phenyl)-acrylic acid pyridin-3-yl methyl ester], for which the “Kobs/[I]” value on HRV-14 3CP (setting [2]) was 57 M⁻¹ s⁻¹.

`CCOC(=O)C=Cc1cc(CN2CCN(C(=O)OCC)CC2)cc(C(N)=O)c1` [Compound 28, 4-[3-Carbamoyl-5-(2-ethoxycarbonyl-vinyl)-benzyl]-piperazine-1-carboxylic acid ethyl ester]: the kinact/KI on HRV-14 3CP was found to be 130 M⁻¹ s⁻¹. This compound yielded a 50% cytotoxic concentration (CC50) in series [1] above 100 µM. The pEC50 in the series on HRV-14 was 5.74.

Turning to `CC(=O)C=Cc1cccc(C(N)=O)c1` [Compound 16, 3-(3-Oxo-but-1-enyl)-benzamide], the CC50 in series [1] worked out at 40 µM. The DTT inhib. entry on 3CP is recorded as “yes”. The compound further gave a pEC50 in the series on HRV-14 of 4.49.

`CCOC(=O)/C=C/c1cc(O)cc(C(N)=O)c1` [Compound 11, 3-(3-Carbamoyl-5-hydroxy-phenyl)-acrylic acid ethyl ester]: the melting point was 200 to 202 °C. The kinact/KI at HRV-14 3CP (setting [2]) was determined as 47 M⁻¹ s⁻¹. Moreover, in series [1], the half-maximal cytotoxic concentration (CC50) is above 100 µM. In addition, the negative-log EC50 (pEC50) in the series on HRV-14 was below 4.00.

`COC(=O)/C=C/c1cccc(C(N)=O)c1` [Compound 2, 3-(3-Carbamoyl-phenyl)-acrylic acid methyl ester]: the kinact/KI at HRV-14 3CP (setting [2]) worked out at 28 M⁻¹ s⁻¹. The same compound came in with a CC50 in series [1] above 320 µM. For the same compound, in the series on HRV-14, the “fold less active in the antiviral assay relative to ethyl ester compound 1” value is 10 fold and the pEC50 was 3.82.

With `CCOC(=O)/C(C#N)=C/c1cccc(C(N)=O)c1` [Compound 9, (E)-3-(3-Carbamoyl-phenyl)-2-cyano-acrylic acid ethyl ester], the CC50 in series [1] is above 100 µM. The compound further had a pEC50 with HRV-14 below 4.00.

Regarding `COc1ccc(C(=O)/C=C/c2cccc(C(N)=O)c2)cc1` [Compound 19, 3-[3-(4-Methoxy-phenyl)-oxo-propenyl] benzamide], in series [1], the CC50 was above 22 µM. Besides, on 3CP, the DTT inhib. result is “yes”. Besides, the negative-log EC50 (pEC50) in the series on HRV-14 was below 4.66.

With `CCOC(=O)/C=C/c1cc(C(N)=O)ccc1C` [Compound 10, 6-Methyl-3-(3-carbamoylphenyl)-acrylic acid ethyl ester], at HRV-14 3CP (@ 25 (concentration unit not given), Serotype 14), the “% inhibition (printed in the Kobs/[I] column)” value came to 10% @ 25. In series [1], this compound yielded a CC50 above 100 µM. The negative logarithm of the EC50 (pEC50) in the series with HRV-14 is below 4.00.

Consider `CCOC(=O)C=Cc1cc(CN2CCN(c3ncccn3)CC2)cc(C(N)=O)c1` [Compound 29, 3-{3-Carbamoyl-5-(4-pyrimidin-2-yl-piperazin-1-ylmethyl)-phenyl}-acrylic acid ethyl ester], for which the kinact/KI on HRV-14 3CP stood at 163 M⁻¹ s⁻¹. Moreover, in series [1], the CC50 is above 100 µM. Moreover, the pEC50 with HRV-14 (Table 3, Serotype 14, read-out: EC50) was 6.00.

In series [1], `NC(=O)c1cccc(C=CC(=O)c2ccccn2)c1` [Compound 20, 3-(3-Oxo-3-pyridin-2-yl-propenyl)-benzamide] returned a cytotoxic concentration (CC50) above 50 µM. Besides, the DTT inhib. entry at 3CP is “yes”. For the same compound, the pEC50 with HRV-14 was below 4.30.

For the compound `NC(=O)c1cccc(C=CC(=O)c2ccccc2)c1` [Compound 17, 3-(3-Oxo-3-phenyl-prop-1-enyl)-benzamide], the CC50 in series [1] is above 28 µM. Further, the DTT inhib. result on 3CP is listed as “yes”. This compound also gave a pEC50 in the series with HRV-14 of 4.55.

For `NC(=O)c1ccc2c(c1)C=CC2=O` [Compound 22, 1-Oxo-1H-indene-5-carboxylic acid amide], the melting point is 275 °C (dec.). In series [1], this compound yielded a CC50 above 20 µM. In addition, the DTT inhib. entry on 3CP was “yes”. The “inactivation by DTT (in words)” value at 3CP (upon incubation with DTT) is reported as “inactivated by DTT”. Besides, in the series with HRV-14, the “antiviral activity (in words)” value is reported as “no antiviral activity” and the pEC50 is below 4.70.

On to `CCOC(=O)C=Cc1cc(CN2CCN(c3ccccc3C#N)CC2)cc(C(N)=O)c1` [Compound 30, 3-{3-Carbamoyl-5-[4-(2-cyano-phenyl)-piperazin-1-ylmethyl]-phenyl}-acrylicacid ethyl ester], for which, on HRV-14 3CP (Table 3, Serotype 14), the kinact/KI was 139 M⁻¹ s⁻¹. In series [1], this compound showed a CC50 of 79 µM. For the same compound, in the series with HRV-14, the “antiviral activity (in words)” value is “submicromolar antiviral activity” and the negative logarithm of the EC50 (pEC50) was 6.22. For the same compound, in the series on HRV-14 (read-out: antiviral EC50), the pEC50 is 6.22.

`CCOC(=O)/C=C/c1cccc(C(N)=O)c1` [Compound 1, 3-(3-Carbamoylphenyl)-acrylic acid ethyl ester] registered a melting point of 168 to 170 °C. In addition, the kinact/KI at HRV-14 3CP is 52 M⁻¹ s⁻¹. The compound further came in with a 50% cytotoxic concentration (CC50) in series [1] above 320 µM. Further, the negative-log EC50 (pEC50) with HRV-14 is 4.80.

With `NC(=O)c1cccc(C=CC(=O)OCCc2ccccc2)c1` [Compound 5, 3-(3-Carbamoyl-phenyl)-acrylic acid phenethyl ester], on HRV-14 3CP (setting [2]), the kinact/KI was determined as 83 M⁻¹ s⁻¹. This compound yielded a CC50 in series [1] above 320 µM. The same compound had a negative-log EC50 (pEC50) with HRV-14 of 4.00.

As to `NC(=O)c1cccc(C=CC(=O)c2ccco2)c1` [Compound 21, 3-(3-Furan-2-yl-3-oxo-propenyl)-benzamide], in series [1], the CC50 was above 71 µM. Also, at 3CP, the DTT inhib. result is reported as “yes”. This compound also had a pEC50 in the series with HRV-14 below 4.15.

Turning to `CN(C)c1ccc(C(=O)/C=C/c2cccc(C(N)=O)c2)cc1` [Compound 18, 3-[3-(4-Dimethylamino-phenyl)-oxo-propenyl] benzamide], in series [1], the CC50 is above 15 µM. Further, the DTT inhib. result on 3CP is “yes”. This compound also had a pEC50 in the series with HRV-14 below 4.82.

Take `NC(=O)c1cccc(C=O)c1` [Compound 1a, 3-Carbamoyl-benzaldehyde]: at HRV-14 3CP, the pKi (as a rule, −log10 of the Ki, conventionally taken in molar units) is 3.98.

For the compound `NC(=O)c1cccc(C=CC(=O)OCCO)c1` [Compound 4, 3-(3-Carbamoyl-phenyl)-acrylic acid 2-hydroxyethyl ester], on HRV-14 3CP (setting [2]), the kinact/KI stood at 42 M⁻¹ s⁻¹. Moreover, the 50% cytotoxic concentration (CC50) in series [1] is above 320 µM. In addition, the negative-log EC50 (pEC50) in the series with HRV-14 is 4.70.

Take `CCOC(=O)/C=C/c1cc(CO)cc(C(N)=O)c1` [Compound 13, 3-(3-Carbamoyl-5-hydroxymethyl-phenyl)-acrylic acid ethyl ester]: the kinact/KI at HRV-14 3CP (setting [2]) stood at 54 M⁻¹ s⁻¹. In series [1], this compound came in with a cytotoxic concentration (CC50) above 100 µM. This compound also gave a pEC50 with HRV-14 below 4.00.
